Values quoted from earlier work, collected in patent US8703900B2 (BioAmber Inc., priority 2010, dated 2014).

Conditions: first acid group

pKa1: 4.43
SMILES: O=C(O)CCCCC(=O)O [AA, adipic acid]
